# Results taken from the supplement of paper PMC10307832.
# Tests used:
# Experiment in all cases: relative viability (nuclei count vs DMSO), 5 days (fraction); higher = more cells survive
# [1] = compound: CC1=C(C(=O)N2C=CSC2=N1)CCN3CCC(=C(C4=CC=CC=C4)C5=CC=C(C=C5)F)CC3 + CCNC(=O)c1noc(-c2cc(C(C)C)c(O)cc2O)c1-c1ccc(CN2CCOCC2)cc1 [Luminespib] (partner 0.01 µM)
# In short: (§1)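 The day after seeding in 1536-well plates, lung cancer cell lines were treated by pin tool with a single drug, or with a fixed anchor-drug dose together with five library-drug doses (not always all listed) in √10 steps. After 5 days, a combined fix-and-stain solution (final 0.05% Triton X-100, 1% formaldehyde, 1 ug/ml Hoechst) was added. Nuclei counted on 4× images gave relative viability as treated counts over vehicle counts, reported as the median of duplicate plates.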
# [2] = compound: CC1=C(C(=O)N2C=CSC2=N1)CCN3CCC(=C(C4=CC=CC=C4)C5=CC=C(C=C5)F)CC3 + COc1cc2c(Oc3ccc(NC(=O)C4(C(=O)Nc5ccc(F)cc5)CC4)cc3F)ccnc2cc1OCCCN1CCOCC1 [Foretinib] (partner 0.25 µM)
# In short: as §1
# [3] = compound: CC1=C(C(=O)N2C=CSC2=N1)CCN3CCC(=C(C4=CC=CC=C4)C5=CC=C(C=C5)F)CC3 + Cc1nc(Nc2ncc(C(=O)Nc3c(C)cccc3Cl)s2)cc(N2CCN(CCO)CC2)n1 [Dasatinib] (partner 0.075 µM)
# In short: as §1
# [4] = compound: CC1=C(C(=O)N2C=CSC2=N1)CCN3CCC(=C(C4=CC=CC=C4)C5=CC=C(C=C5)F)CC3 + Nc1ncn([C@H]2C[C@H](O)[C@@H](CO)O2)c(=O)n1 [Decitabine] (partner 2 µM)
# In short: as §1
Cell Line,relative viability ([1]; first compound 0.08 µM),relative viability ([1]; first compound 0.253 µM),relative viability ([1]; first compound 0.8 µM),relative viability ([1]; first compound 2.53 µM),relative viability ([1]; first compound 8 µM),relative viability ([2]; first compound 0.08 µM),relative viability ([2]; first compound 0.253 µM),relative viability ([2]; first compound 0.8 µM),relative viability ([2]; first compound 2.53 µM),relative viability ([2]; first compound 8 µM),relative viability ([3]; first compound 0.08 µM),relative viability ([3]; first compound 0.253 µM),relative viability ([3]; first compound 0.8 µM),relative viability ([3]; first compound 2.53 µM),relative viability ([3]; first compound 8 µM),relative viability ([4]; first compound 0.08 µM),relative viability ([4]; first compound 0.253 µM),relative viability ([4]; first compound 0.8 µM),relative viability ([4]; first compound 2.53 µM),relative viability ([4]; first compound 8 µM)
201T,1.02,1.1,1.06,1.05,0.966,1.1,1.26,1.16,1.25,0.864,0.614,0.628,0.541,0.713,0.569,0.884,0.89,0.845,0.9,0.804
A549,–,–,–,–,–,0.954,0.982,1.03,0.97,0.763,–,–,–,–,–,0.206,0.249,0.266,0.282,0.194
A-427,0.91,0.919,0.923,1.15,0.88,1.08,1.1,1.16,1.15,1,0.788,0.585,0.715,0.696,0.457,0.452,0.654,0.546,0.592,0.595
ABC-1,0.743,0.607,0.429,0.329,0.564,1.03,1.18,0.958,0.869,0.635,0.622,0.606,0.455,0.512,0.467,1.2,–,1.04,1.18,1.02
BEN,0.439,0.33,0.308,0.308,0.35,0.708,0.74,0.639,0.677,0.595,0.318,0.319,0.294,0.362,0.284,0.807,0.703,0.702,0.737,0.708
CAL-12T,0.224,0.501,0.384,0.502,0.385,1.17,1.04,1.29,1.23,0.691,0.319,0.268,0.373,0.527,0.279,–,–,–,–,–
COR-L23,0.61,0.831,0.785,0.671,0.504,0.898,1.02,1.07,1.23,0.584,0.383,0.341,0.457,0.59,0.403,0.415,0.498,0.405,0.484,0.368
COR-L 105,0.673,0.817,0.798,0.809,0.659,0.574,1.05,1.02,1.56,0.761,0.416,0.32,0.241,0.372,0.294,0.59,0.629,0.71,0.719,0.509
Calu-6,–,–,–,–,–,0.93,0.93,0.863,0.898,0.707,–,–,–,–,–,–,–,–,–,–
ChaGo-K-1,0.462,0.648,0.644,0.514,0.444,0.884,1.04,1.04,0.942,0.548,0.598,0.635,0.59,0.639,0.547,0.495,0.548,0.52,0.629,0.46
EBC-1,–,–,–,–,–,0.109,0.101,0.104,0.108,0.106,–,–,–,–,–,–,–,–,–,–
EKVX,0.768,0.915,0.936,0.871,0.825,0.671,1.04,0.815,0.855,0.677,0.359,0.631,0.519,0.434,0.549,0.345,0.335,0.376,0.366,0.386
EMC-BAC-2,1.23,1.15,1.28,1.16,1.03,0.945,0.982,0.981,1.12,0.972,0.287,0.329,0.277,0.328,0.298,1.14,–,1.01,1.03,0.906
EPLC-272H,0.276,0.227,0.197,0.423,0.268,0.658,0.622,0.657,0.677,0.576,0.364,0.331,0.378,0.305,0.22,0.431,0.312,0.37,0.396,0.376
H3255,0.796,0.892,0.786,0.961,0.709,0.818,0.891,0.734,0.886,0.707,0.349,0.357,0.307,0.339,0.375,0.688,0.549,0.521,0.664,0.495
HARA,0.682,0.73,0.688,0.477,0.426,1.19,0.98,0.956,0.942,0.649,0.243,0.23,0.265,0.229,0.136,0.639,0.664,0.526,0.515,0.427
HCC-15,0.444,0.321,0.22,0.444,0.293,1.06,0.995,1.16,1.07,0.774,0.638,0.561,0.643,0.678,0.586,0.831,0.651,0.601,0.642,0.604

Cell Line,relative viability ([1]; first compound 0.08 µM),relative viability ([1]; first compound 0.253 µM),relative viability ([1]; first compound 0.8 µM),relative viability ([1]; first compound 2.53 µM),relative viability ([1]; first compound 8 µM),relative viability ([2]; first compound 0.08 µM),relative viability ([2]; first compound 0.253 µM),relative viability ([2]; first compound 0.8 µM),relative viability ([2]; first compound 2.53 µM),relative viability ([2]; first compound 8 µM),relative viability ([3]; first compound 0.08 µM),relative viability ([3]; first compound 0.253 µM),relative viability ([3]; first compound 0.8 µM),relative viability ([3]; first compound 2.53 µM),relative viability ([3]; first compound 8 µM),relative viability ([4]; first compound 0.08 µM),relative viability ([4]; first compound 0.253 µM),relative viability ([4]; first compound 0.8 µM),relative viability ([4]; first compound 2.53 µM),relative viability ([4]; first compound 8 µM)
HCC-44,1.37,1.51,–,1.3,0.736,–,–,–,–,–,–,–,–,–,–,1.03,1.09,0.995,1.02,0.985
HCC-78,–,–,–,–,–,0.547,0.522,0.513,0.534,0.522,0.344,0.356,0.373,0.344,0.248,0.769,0.803,0.765,0.683,0.536
HCC-366,–,–,–,–,–,0.935,1,1.01,1,0.662,0.697,0.631,0.711,0.545,0.247,0.389,0.318,0.324,0.394,0.243
HCC-827,0.742,0.606,0.552,0.781,0.342,1.11,1.08,1.05,1.13,1.01,0.212,0.288,0.38,0.3,0.265,0.285,0.335,0.308,0.33,0.322
HOP-62,0.926,0.909,0.923,0.92,0.461,1.17,0.995,1.14,1.06,0.705,0.595,0.482,0.621,0.575,0.548,0.2,0.193,0.204,0.213,0.162
IA-LM,–,–,–,–,–,1.1,1.06,1.24,1.22,0.691,–,–,–,–,–,–,–,–,–,–
LC-2-ad,1.27,1.36,1.12,1.19,0.918,0.971,1.09,0.892,1.12,0.761,0.766,0.538,0.422,0.644,0.497,0.866,0.903,0.875,0.794,0.642
LCLC-97TM1,0.709,0.831,0.789,0.938,0.514,1.01,1.01,1.02,0.92,0.958,0.857,0.773,0.949,0.92,0.658,0.234,0.252,0.216,0.253,0.181
LCLC-103H,0.791,0.947,0.864,0.93,0.594,0.864,0.567,0.732,0.761,0.496,0.498,0.409,0.439,0.424,0.339,0.685,0.702,0.69,0.826,0.646
LK-2,0.154,0.21,0.186,0.191,0.162,1.35,1.07,1.18,1.33,0.794,0.273,0.249,0.354,0.282,0.268,0.316,0.226,0.341,0.339,0.248
NCI-H522,1.18,1.16,1.21,1.2,0.897,–,–,–,–,–,0.901,0.549,0.998,0.855,0.733,0.729,0.629,0.793,0.592,0.686
NCI-H1299,–,–,–,–,–,1.19,1.14,1.13,1.14,1.02,–,–,–,–,–,–,–,–,–,–
NCI-H1648,–,–,–,–,–,–,–,–,–,–,–,–,–,–,–,0.528,0.587,0.513,0.456,0.453
NCI-H1703,–,–,–,–,–,0.4,0.415,0.321,0.363,0.319,–,–,–,–,–,–,–,–,–,–
NCI-H1792,0.354,0.444,0.585,0.379,0.349,–,–,–,–,–,0.72,0.574,0.817,0.837,0.352,0.312,0.561,0.614,0.426,0.19
NCI-H2228,0.126,0.194,0.181,0.137,0.101,0.689,0.645,1.13,0.864,0.55,0.542,0.555,0.562,0.546,0.338,–,–,–,–,–
